Reference: US9790169B2, “IDO inhibitors” (BRISTOL-MYERS SQUIBB COMPANY, priority 2015, dated 2017)

Biological target: human IDO1 (Homo sapiens, UniProt P14902)
Experiment: Assessment of human IDO-1 inhibitory activity in Hela cells (Interferon-gamma stimulated HeLa cells, Ehrlich reagent, absorbance 490 nm)
Type: cell-based
Set-up: endogenous in cells; host or cells: HeLa cells stimulated with interferon-gamma
Conditions: Hela Human IDO-1 cellular assay
In short: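 IDO activity induced by 18 h IFN-γ (human 10 ng/ml or murine 5 ng/ml, final) after 1 h compound pre-treatment of HeLa cells at 37 °C. Supernatant kynurenine detected via Ehrlich reagent absorbance at 490 nm following 3% TCA at 50 °C; IC50 set against no-IFN-γ and untreated-stimulated controls.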

Chain of human IDO1 (P14902 whole entry): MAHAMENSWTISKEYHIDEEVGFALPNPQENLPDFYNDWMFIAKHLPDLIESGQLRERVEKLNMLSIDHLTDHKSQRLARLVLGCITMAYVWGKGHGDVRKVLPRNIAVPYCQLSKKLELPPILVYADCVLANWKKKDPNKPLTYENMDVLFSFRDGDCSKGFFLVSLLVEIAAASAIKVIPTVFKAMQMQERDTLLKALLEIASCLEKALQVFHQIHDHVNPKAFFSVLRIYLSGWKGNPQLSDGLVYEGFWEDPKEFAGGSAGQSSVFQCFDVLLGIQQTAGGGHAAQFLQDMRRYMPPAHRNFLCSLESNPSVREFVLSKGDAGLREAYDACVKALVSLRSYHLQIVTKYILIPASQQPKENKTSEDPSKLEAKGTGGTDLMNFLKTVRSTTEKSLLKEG

Compound | IC50 [µM]
CCCN(c1ccc(C(CC)CC(=O)O)cc1Nc1cnc(OCC)nc1)C1CCS(=O)(=O)CC1 (single isomer, unassigned) [Example 13 Enantiomer 1, 3-(4-((1,1-Dioxidotetrahydro-2h-thiopyran-4-yl)(propyl)amino)-3-((2-ethoxypyrimidin-5-yl)amino)phenyl)pentanoic acid] | < 0.05
CCN(c1ccc(C(C)(C)CC(=O)O)cc1Nc1ccc(Cl)cc1)C1CCS(=O)(=O)CC1 [Example 180, 3-(3-((4-chlorophenyl)amino)-4-((1,1-dioxidotetrahydro-2H-thiopyran-4-yl)(ethyl)amino)phenyl)-3-methylbutanoic acid] | < 0.005
CCCN(c1ccc(C(C)(C)CC(=O)O)cc1Nc1cnc(OC)nc1)C1CCS(=O)(=O)CC1 [Example 189, 3-(4-((1,1-dioxidotetrahydro-2H-thiopyran-4-yl)(propyl)amino)-3-((2-methoxypyrimidin-5-yl)amino)phenyl)-3-methylbutanoic acid] | > 0.05
CCOc1ncc(Nc2cc(C(CC)(CC)CC(=O)O)ccc2N(CC)C2CCOCC2)cn1 [Example 29, 3-(3-((2-ethoxypyrimidin-5-yl)amino)-4-(ethyl(tetrahydro-2H-pyran-4-yl)amino)phenyl)-3-ethylpentanoic acid] | < 0.005
CCN(c1ccc(C(CC(=O)O)C2CC2)cc1NC(=O)Nc1ccc(C)cc1)C1CCOCC1 (single isomer, unassigned) [Example 40 Enantiomer 1, 3-Cyclopropyl-3-(4-(ethyl(tetrahydro-2H-pyran-4-yl)amino)-3-(3-(p-tolyl)ureido)phenyl)propanoic acid] | < 0.005
CCN(c1ccc([C@@H](COC)CC(=O)O)cc1Nc1ccc(F)cn1)C1CCOCC1 (single isomer, unassigned) [Example 363] | < 0.05
CCC(CC(=O)O)c1cc(F)c(N(CC)C2CCOCC2)c(Nc2cnc(OC)nc2)c1 (single isomer, unassigned) [Example 140, 3-(4-(ethyl(tetrahydro-2H-pyran-4-yl)amino)-3-fluoro-5-((2-methoxypyrimidin-5-yl)amino)phenyl) pentanoic acid] | < 0.005
CC[C@@H](CC(=O)O)c1ccc(N(CC)C2CCOCC2)c(Nc2cnc(N(C)C)nc2)c1 (single isomer, unassigned) [Example 459] | < 0.05
CCCN(c1ccc(C(C)(C)CC(=O)O)cc1Nc1ccc(C#N)cc1)C1CCOCC1 [Example 22, 3-(3-((4-cyanophenyl)amino)-4-(propyl(tetrahydro-2H-pyran-4-yl)amino)phenyl)-3-methylbutanoic acid] | < 0.005
CCOc1ncc(Nc2cc(C(CC)CC(=O)O)ccc2N(CC)C2CCCOC2)cn1 (single isomer, unassigned) [Example 63, 3-(3-((2-ethoxypyrimidin-5-yl)amino)-4-(ethyl(tetrahydro-2H-pyran-3-yl)amino)phenyl)pentanoic acid] | < 0.005
3-(4-((1,1-dioxidotetrahydro-2H- thiopyran-4-yl)(ethyl)amino)-3- ((4-fluorophenyl)amino)phenyl)- 4-isopropoxybutanoic acid [Example 340] | < 0.05
COCCN(c1ccc(C(C)(C)CC(=O)O)cc1Nc1ccc(Cl)cc1)C1CCOCC1 [Example 15, 3-(3-((4-Chlorophenyl)amino)-4-((2-methoxyethyl)(tetrahydro-2H-pyran-4-yl)amino)phenyl)-3-methylbutanoic acid] | < 0.005
CCN(c1ccc([C@@H](COC)CC(=O)O)cc1Nc1ccc(F)cc1F)C1CCOCC1 (single isomer, unassigned) [Example 365] | < 0.05
CCC(CC(=O)O)c1ccc(N2CCOCC2)c(NC(=O)Nc2ccc(C)cc2)c1 (single isomer, unassigned) [Example 8 Enantiomer 2, 3-(4-Morpholino-3-(3-(p-tolyl)ureido)phenyl)pentanoic acid] | < 0.05
COCCN(c1ccc(C(C)(C)CC(=O)O)cc1Nc1ccc(C#N)cc1)C1CCOCC1 [Example 16, 3-(3-((4-cyanophenyl)amino)-4-((2-methoxyethyl)(tetrahydro-2H-pyran-4-yl)amino)phenyl)-3-methylbutanoic acid] | < 0.005
CCOc1ncc(Nc2cc(C(CC)CC(=O)O)ccc2N2CCC(C)CC2)cn1 (single isomer, unassigned) [Example 43, 3-(3-((2-ethoxypyrimidin-5-yl)amino)-4-(4-methylpiperidin-1-yl)phenyl)pentanoic acid] | > 0.05

The remaining lines, values ahead:

IC50 [µM] | Compound
> 0.05 | CC[C@H](CC(=O)O)c1ccc(N(CC)C2CCOCC2)c(Nc2ccc(N(C)C)nc2)c1 (single isomer, unassigned) [Example 506]
< 0.05 | CCN(c1c(F)cc(C(COC)CC(=O)O)cc1Nc1ccc(C#N)cc1)C1CCOCC1 (single isomer, unassigned) [Example 918, 3-(3-((4-Cyanophenyl)amino)-4-(ethyl(tetrahydro-2H-pyran-4-yl)amino)-5-fluorophenyl)-4-methoxybutanoic acid]
> 0.05 | CCCN(c1ccc([C@H](COC)CC(=O)O)cc1NC(=O)Nc1ccc(C#N)cc1)C1CCOCC1 (single isomer, unassigned) [Example 577]
< 0.005 | CCOc1cnc(Nc2cc([C@H](CC)CC(=O)O)ccc2N(CC)C2CCOCC2)cn1 (single isomer, unassigned) [Example 508]
< 0.005 | CCN(c1cc(F)c([C@@H](COC)CC(=O)O)cc1Nc1ccc(C#N)cc1)C1CCOCC1 (single isomer, unassigned) [Example 843, 3-(5-((4-Cyanophenyl)amino)-4-(ethyl(tetrahydro-2H-pyran-4-yl)amino)-2-fluorophenyl)-4-methoxybutanoic acid]
> 0.05 | COCC(CC(=O)O)c1ccc(N2CCOC[C@@H]2C(C)C)c(Nc2ccc(Cl)cc2)c1 (single isomer, unassigned) [Example 934]
> 0.05 | COCC(CC(=O)O)c1ccc(N(C)C2CCOCC2)c(Nc2ccc(Cl)cc2)c1 (single isomer, unassigned) [Example 877, 3-(3-((4-chlorophenyl)amino)-4-(methyl(tetrahydro-2H-pyran-4-yl)amino)phenyl)-4-methoxybutanoic acid]
< 0.005 | CCCN(c1ccc([C@H](CC)CC(=O)O)cc1Nc1cnc(OCC)nc1)C1CCOCC1 (single isomer, unassigned) [Example 546]
> 0.05 | CCN(c1cc(F)c([C@@H](COC)CC(=O)O)cc1NC(=O)Nc1ccc(C#N)cc1)C1CCOCC1 (single isomer, unassigned) [Example 849, 3-(5-(3-(4-Cyanophenyl)ureido)-4-(ethyl(tetrahydro-2H-pyran-4-yl)amino)-2-fluorophenyl)-4-methoxybutanoic acid]
> 0.05 | CCOc1ncc(Nc2cc(C(CC)CC(=O)O)ccc2N2CCN(C(=O)OC)CC2)cn1 (single isomer, unassigned) [Example 669, 3-(3-((2-Ethoxypyrimidin-5-yl)amino)-4-(4-(methoxycarbonyl)piperazin-1-yl)phenyl)pentanoic acid]
< 0.05 | CCC(CC(=O)O)c1ccc(N(C)C2CCOCC2)c(Nc2cnc(OC)nc2)c1 (single isomer, unassigned) [Example 868, 3-(3-((2-methoxy-pyrimidin-5-yl)amino)-4-(methyl (tetrahydro-2H-pyran-4-yl)amino)phenyl) pentanoic acid]
< 0.05 | CC[C@H](CC(=O)O)c1ccc(N(CC)C2CCOCC2)c(Nc2ccc(OC)cn2)c1 (single isomer, unassigned) [Example 505]
> 0.05 | CCOc1ncc(Nc2cc(C(CC)CC(=O)O)ccc2N2CC(O)(c3ccc(F)cc3)C2)cn1 (single isomer, unassigned) [Example 1256, 3-(3-((2-ethoxypyrimidin-5-yl)amino)-4-(3-(4-fluorophenyl)-3-hydroxyazetidin-1-yl)phenyl)pentanoic acid]
< 0.05 | COCC(CC(=O)O)c1ccc(N2CCOC[C@@H]2C(C)C)c(Nc2ccc(C#N)cc2)c1 (single isomer, unassigned) [Example 929]
> 0.05 | COCC(CC(=O)O)c1ccc(N2CCC(c3ccccc3)CC2)c(NC(=O)Nc2ccc(Cl)cc2F)c1 (single isomer, unassigned) [Example 1357 E1, 3-(3-(3-(4-Chloro-2-fluorophenyl)ureido)-4-(4-phenylpiperidin-1-yl)phenyl)-4-methoxybutanoic acid]
> 0.05 | CCC1COCCN1c1ccc([C@H](COC)CC(=O)O)cc1Nc1ccc(C#N)cn1 (single isomer, unassigned) [Example 1289]
< 0.005 | CC[C@H](CC(=O)O)c1ccc(N(CC)C2CCOCC2)c(Nc2cnc(OC)cn2)c1 (single isomer, unassigned) [Example 507]
< 0.005 | CCCN(c1ccc([C@H](CC)CC(=O)O)cc1Nc1cnc(OCC2CC2)nc1)C1CCOCC1 (single isomer, unassigned) [Example 554]
< 0.05 | CCC1COCCN1c1ccc([C@H](COC)CC(=O)O)cc1Nc1ccc(Cl)cc1 (single isomer, unassigned) [Example 1292]
< 0.05 | CCCN(c1ccc([C@@H](COC)CC(=O)O)cc1Nc1cnc(OCC)nc1)C1CCOCC1 (single isomer, unassigned) [Example 559]
< 0.005 | CCCN(c1ccc(C(CC)CC(=O)O)cc1NC(=O)Nc1ccc(C)cc1)C1CCOCC1 (single isomer, unassigned) [Example 557 Enantiomer 2, 3-(4-(Propyl(tetrahydro-2H-pyran-4-yl)amino)-3-(3-(p-tolyl)ureido)phenyl)pentanoic acid]
< 0.05 | CCC(CC(=O)O)c1ccc(N2CCOC(C)(C)C2)c(Nc2ccc(Cl)cc2)c1 (single isomer, unassigned) [Example 1319 E1, 3-(3-((4-Chlorophenyl)amino)-4-(2,2-dimethylmorpholino)phenyl)pentanoic acid]
